# Reference: patent publication US20250099582A1, “TREATMENT OF PATIENTS DIAGNOSED WITH PANCREATIC DUCTAL ADENOCARCINOMA USING MONOCLONAL ANTIBODIES AGAINST THE EPIDERMAL GROWTH FACTOR RECEPTOR (EGFR)” (INNOCIMAB PTE LTD, priority 2015, published 2025)
# “Also recorded” adds a separate entry of the source.
# How the values were obtained:
# PDAC patients = details: cited from earlier work
# [1] = Same clinical trial: safety, serious adverse events (SAEs); type: in vivo, human; details: for number of serious adverse events (SAEs) reported in the arm: 93 patients per arm; for patients with serious adverse events (SAEs): of 93 patients in the arm
# Description: (§1) One hundred and ninety two (192) newly diagnosed patients with locally advanced or metastatic pancreatic cancer were randomized and recruited into 2 arms, on the treatment arm patients were administered administered i.v infusion of nimotuzumab at 400 mg dose once a week until progressive disease or unacceptable toxicity and gemcitabine 1000 mg/m^2 once weekly for 3 weeks, followed by a 1-week rest (d1, 8, 15; q28) and on the control arm patients were administered i.v infusion of placebo once a week until progressive disease or unacceptable toxicity and gemcitabine 1000 mg/m^2 once weekly for 3 weeks, followed by a 1-week rest (d1, 8, 15; q28).
# (§2) As a primary endpoint, overall survival (OS) in the intention-to-treat (ITT) population was evaluated. The OS was assessed by the date of the last visit, death or loss of the follow up. The OS was initially calculated for all population and then a subset analysis was run taking into consideration the KRAS status of each of the patients on each treatment arm. Secondary endpoints included progression free survival (PFS), assessed by the day of the progression or the death, safety, assessed by the incidence of adverse events (AE) or serious adverse events (SAE), objective response rate (ORR), assessed by the number of patients on each treatment arm with Complete Response (CR) and Partial Response (PR) to the treatment ((CR+PR)/N, No. patients in the arm)) and Quality of Life (QoL), assessed using EORTC quality of life questionnaire QLQ-C30 version 2.0 (EORTC, NL).
# [2] = test system: locally advanced or metastatic pancreatic cancer patients; assay: Randomized clinical trial of gemcitabine plus nimotuzumab versus gemcitabine plus placebo: survival by KRAS status; type: in vivo, human; details: for overall survival (OS), Kaplan-Meier, versus placebo-gemcitabine arm / progression-free-survival (PFS), Kaplan-Meier, versus placebo-gemcitabine arm: nimotuzumab 400 mg i.v. once weekly + gemcitabine 1000 mg/m^2 (d1, 8, 15; q28)
# Description: In this clinical trial patients with previously untreated, unresectable, locally advanced or metastatic pancreatic adenocarcinoma received gemcitabine (1000 mg/m^2/30-min iv once weekly (d1, 8, 15; q28)) and nimotuzumab (400 mg 30-min iv once weekly), or placebo until disease progression or unmanageable toxicity. The primary endpoint in this study was overall survival (OS) in the intention-to-treat (ITT) population. The secondary endpoints included progression free survival (PFS), safety, objective response rate (ORR), and Quality of Life (QoL).
# as §1
# Tumor response was assessed using CT (Computed Tomography) or MRI (Magnetic Resonance Imaging) and statistically analyzed using RECIST (Response Evaluation Criteria in Solid Tumors), which provides guidelines for identifying complete response, partial response, stable disease, or progressive disease based on tumor size (see, e.g., Therasse et al., February 2000, “New Guidelines to Evaluate the Response to Treatment in Solid Tumors,” J. Natl. Cancer Inst. 92 (3): 205-216) and overall survival was assessed by the last patient visit, death or loss of follow up.
# Out of 192 patients that were randomized into 2 arms, tumor samples were taken from 101 patients (49 from the control arm and 52 from the treatment arm).
# To determine if KRAS status correlates with survival the 101 samples were tested. From the KRAS analysis of the 101 samples, 34 samples were KRAS Wild Type (20 from the control arm and 14 from the treatment arm) and 67 samples has the mutation of the KRAS (29 from the control arm and 38 from the treatment arm).
# as §2
# Progression-free-survival (PFS) is defined as the length of time during and after the treatment of a disease, such as cancer, that a patient lives with the disease without worsening of the symptoms and was measured from date of randomization to the occurrence of progression or death or last date of observation without progression.
# [3] = patients with KRAS mutated, FIG. 3
# [4] = patients with KRAS wild type, FIG. 4
molecule,measurement,setting,value
C#Cc1cccc(Nc2ncnc3cc(OCCOC)c(OCCOC)cc23)c1 [Erlotinib],PDAC patients in whom treatment has shown benefit,PDAC patients; Moore et al. J Clin Oncol. 2007,about 10%
same,prolongation of median survival,PDAC patients; addition to gemcitabine,2 weeks
"Nc1ccn([C@@H]2O[C@H](CO)[C@@H](O)C2(F)F)c(=O)n1 [placebo-gemcitabine, gemcitabine, reference compound]",number of serious adverse events (SAEs) reported in the arm,[1],104 SAEs
same,patients with serious adverse events (SAEs),[1],65.6%
nimotuzumab: anti-EGFR humanized monoclonal antibody produced by the cell line h-R3 deposited as ECACC 951110101,"SAE related to study drug: general physical health deterioration, subjects",[1]; nimotuzumab arm,3.23%
same,"SAE related to study drug: nausea, subjects",[1]; nimotuzumab arm,2.15%
same,"SAE related to study drug: thrombocytopenia, subjects",[1]; nimotuzumab arm,2.15%
same,"SAE related to study drug: vomiting, subjects",[1]; nimotuzumab arm,2.15%
same,patients with SAEs reported to be related to the study drug,"[1]; nimotuzumab arm, of 93 patients",16.1%
same,number of SAEs reported to be related to the study drug,"[1]; nimotuzumab arm, of the 108 SAEs",26 SAEs
"nimotuzumab-gemcitabine: treatment arm: nimotuzumab 400 mg i.v. once a week plus gemcitabine 1000 mg/m^2 once weekly for 3 weeks, 1-week rest","overall survival (OS), Kaplan-Meier, versus placebo-gemcitabine arm",[2]; [3],no difference
same,"progression-free-survival (PFS), Kaplan-Meier, versus placebo-gemcitabine arm",[2]; [3],no difference
same,"overall survival (OS), Kaplan-Meier, versus placebo-gemcitabine arm",[2]; [4],significant difference in favour of the treatment arm; also recorded: significant improvement
same,"progression-free-survival (PFS), Kaplan-Meier, versus placebo-gemcitabine arm",[2]; [4],significant difference in favour of the treatment arm; also recorded: significant improvement
same,"overall survival (OS), Kaplan-Meier, versus placebo-gemcitabine arm","[2]; patients with KRAS wild type, FIG. 4, listed as nimotuzumab and gemcitabine",significantly improved
same,increase of median overall survival compared to control arm (placebo-gemcitabine),[2]; subgroup of KRAS WT,6 months
same,number of serious adverse events (SAEs) reported in the arm,[1],108 SAEs
same,patients with serious adverse events (SAEs),[1],58.1%
